Experimental data as given in US10035791B2, “Bicyclic compound and pharmaceutical composition thereof for treating stroke and use thereof” (China Medical University, priority 2016, dated 2018).

Legend:
[1] = test system: ischemic rats; experiment: Body swing test; assay type: in vivo, Sprague-Dawley (SD) rats; conditions: 1 mg/kg, vs control group; 1, 7, 14 and 28 days after the injection, FIG. 19A
Description: (§1) The ischemic rats are induced by an ischemia-reperfusion model to simulate transient focal cerebral ischemia in rats. Test animals are male Sprague-Dawley (SD) rats weighing 250-300 g. The rats are anesthetized with chloral hydrate (0.4 g/kg IP) and subjected to cerebral ischemia. The ischemia-reperfusion model is induced by ligations of bilateral common carotid arteries (CCAs) and a right middle cerebral artery (MCA). The bilateral CCAs are clamped with non-traumatic arterial clips, and the right MCA is ligated with an 10-0 nylon suture. After 90 minutes ischemia, the suture on the MCA and the arterial clips on CCAs are removed to allow reperfusion. Core body temperature is monitored with a thermistor probe (Hewlett-Packard Model 21090A probe, Hewlett-Packard Company, Andover, Mass.), and maintained at 37° C. with a heating pad during anesthesia. After recovery from anesthesia, rat body temperature is maintained at 37° C. with a heat lamp. […]
The body swing test is used to assess body asymmetry after MCA ligation. Initially, the ischemic rats are suspended by their tail 10 cm above the cage floor, and lateral body movements are recorded. Specifically, the frequency with which the initial head swing contra-lateral to the ischemic side is counted in twenty consecutive tests and is normalized to the baseline score.

[2] = test system: ischemic rats; experiment: Locomotor activity test; assay type: in vivo, Sprague-Dawley (SD) rats; conditions: 1 mg/kg, vs control group, FIGS. 19B to 19D
Description: as §1, with “anesthesia.” for “anesthesia. After recovery from anesthesia, rat body temperature is maintained at 37° C. with a heat lamp.”
The locomotor activity test is measured for about 2 hours using VersaMax Animal Activity Monitoring System (Accuscan Instruments), which contains 16 horizontal infrared sensors and 8 vertical infrared sensors. The vertical sensors are situated 10 cm above the chamber floor and the locomotor activity is quantified by a number of a beam broken by the rat's movement in the chamber. Three vertical-movement parameters are measured: (i) vertical activity (ii) vertical time (iii) number of vertical movements by the manufacturer's instruction.

[3] = test system: NSCs; experiment: Proliferation index (PI) measurement of CFSE-labelled NSCs by flow cytometry; assay type: cell-based, mice; conditions: 1 μM for 16 hours; control group 4.37, FIG. 11C
Description: To prepare the NSCs, after removal of meninges, subventricular zones (SVZ) of lateral ventricles from adult mice brain (4 week-of-age) are aseptically isolated and dissociated as previously described (J Cell Sci 2006; 119, 4467-4474). All steps are operated under sterile conditions. Then, neurosphere culture are prepared in neurobasal (NB) medium (Gibco BRL) supplemented with 2% of B27 (Gibco BRL), 2 mM of L-glutamine (PAN Biotech), 100 U/ml of penicillin/0.1 mg/L of streptomycin (Gibco BRL). For maintenance and expansion of the cultures, the NB/B27 is further supplemented with 2 μg/mL of heparin (Sigma), 20 ng/mL of FGF-2 (R&D Systems) and 20 ng/mL of EGF (R&D Systems). Neurosphere cultures are maintained at 37° C. in a humidified incubator with 5% CO2. For clonal/low density cultures, primary neurospheres grown at high density are dissociated into a single cell suspension and reseeded into 96-well plates at 100 cells per ml of media and the number of newly formed neurospheres is counted after 7 days. In addition, the Bmi-1 expressions, SOX2 expressions, Nestin expressions, Musashi-1 expressions, BrdU expressions and ki-67 expressions of the newly formed neurospheres are determined by the immunofluorescence staining.
To analyze whet her he Compound 1 modulates the NSCs proliferation, this example examines the effect of the HIF-1α-Bmi-1 pathway on the self-renewal of the neurosphere. […]

[4] = test system: HIF-1α; experiment: HIF-1α expressions in the PCCs with hypoxic treatment, Western blot; assay type: cell-based, C57BL/6 mice; conditions: 1 μM 2-ME2 for 16 hours, FIG. 6C
Description: (§2) Test cells are primary cortical cultures (PCCs) in this example. The PCCs are prepared from cerebral cortexes of gestation day 17 embryos from C57BL/6 mice as described previously (Cell Death Differ 2008; 15: 143-151). The PCCs are maintained under serum-free conditions in neurobasal medium (Invitrogen), supplemented with B-27 supplement (2%; invitrogen), glutamine (0.5 mM; Sigma Aldrich), glutamate ([…]; Sigma Aldrich), penicillin (100 U/ml) and streptomycin ([…]; Invitrogen). At 4 days in vitro, half of the medium is removed and replaced with fresh medium without glutamate. The cultures are maintained in a humidified incubator at 37° C. with 5% CO2. At 7 days in vitro, the PCCs are used for experimentation.
One group of the PCCs is transduced with LV-HIF-1α-sh (sc-35562-V, Santa Cruz Biotechnology) and LV-control-sh (sc-108080, Santa Cruz Biotechnology) by a lenti-viral infection to reduce the HIF-1α expressions. Another group of the PCCs is treated with 1 μM of 2-ME2 for 16 hours to reduce the HIF-1α expressions in the PCCs. In FIG. 6C, the HIF-1α expressions in the PCCs are decreased both in the LV-HIF-1α-sh transduced group and the 2-ME2 treated group.

[5] = test system: Bmi-1; experiment: Bmi-1 expressions in the PCCs with hypoxic treatment, Western blot; assay type: cell-based, C57BL/6 mice
Description: as §2
The relationship between the HIF-1α activation and the Bmi-1 expressions is further analyzed by the Western blot analysis in this example. […] One group of the PCCs is transfected with LV-Bmi-1 to transient express the Bmi-1. Another group of the PCCs is treated with 1 μM of 2-ME2 for 16 hours and then transfected with the LV-Bmi-1. The other group of the PCCs is transfected with LV-GFP as the control group. In FIG. 6B, the PCCs transfected with the LV-Bmi-1 overexpress the Bmi-1. However, the overexpressions of the Bmi-1 are not affected by the pretreatment of the PCCs with 2-ME2. […]

Row | SMILES | neurological recovery in the body swing test [1] | locomotor activity (vertical activity, vertical time, number of vertical movements) [2] | proliferation index (PI) of the NSCs [3] | HIF-1α expressions in the PCCs [4] | overexpressions of the Bmi-1 in PCCs transfected with the LV-Bmi-1 ([5]; 1 μM 2-ME2 for 16 hours before transfection, FIG. 6B) | Bmi-1 expressions of the PCCs ([5]; 1 μM 2-ME2 for 16 hours, hypoxic treatment, FIG. 6C)
1 | COC(=O)C1=CO[C@@H](O)[C@@H]2C(COC(=O)[C@@H](N)Cc3ccccc3)=CC[C@H]12 [Compound 1] | much more neurological recovery | significant improvement | 6.77 |  |  | 
2 | COc1cc2c(cc1O)CC[C@@H]1[C@@H]2CC[C@]2(C)[C@@H](O)CC[C@@H]12 [Compound 2-ME2, 2-Methoxyestradiol, reference compound] |  |  |  | decreased | not affected | reduced
